According to patent publication US6479487B1, “6, 9-disubstituted 2-[trans-(4-aminocyclohexyl)amino] purines” (Aventis Pharmaceuticals Inc., priority 1998, dated 2002):
Values joined by “and” are separate entries in the source; they are usually repeats but may differ in a detail not shown here. Equal values may be shown once. Where a name gives a salt, the structure may show the parent alone. Read-outs that look alike come from different tables or passages of the source.

Key:
cdk2/cyclin E = biological target: T1, cdk2/cyclin E (Homo sapiens, UniProt P24941); test: Cyclin-Dependent Kinase 2 Assay (cdk2/cyclin E, GST-Rb substrate); assay type: biochemical; conditions: recombinant cdk2/cyclin E, 10 μM ATP, 30 min at 30° C., several values in a cell = separate determinations, read-out: CDK-2 Inhibition IC50
T1 construct: made in house; host or cells: insect cells (baculovirus co-infection)
Method: Substrate: GST-Rb as described above for cdk4/cyclin D1
Assay conditions for cdk2/cyclin E were identical to those for cdk4/cyclin D1 including the substrate. The concentration of recombinant cdk2/cyclin E in the assay was 0.1 μg per 100 μl assay. Incubation was for 30 min at 30° C.

cdk4/cyclin D1 = biological target: T2, cdk4/cyclin D1 (Homo sapiens, UniProt P11802); test: Cyclin-dependent Kinase 4 Assay (cdk4/cyclin D1, GST-Rb substrate); assay type: biochemical; conditions: cdk4/cyclin D1 insect cell lysate, 10 μM ATP, 30 min at 37° C., several values = separate determinations, read-out: CDK4 Inhibition IC50
T2 construct: made in house; host or cells: Sf9 insect cells (Bac-to-Bac baculovirus, pFastBac)
T2 sequence (P11802 whole entry): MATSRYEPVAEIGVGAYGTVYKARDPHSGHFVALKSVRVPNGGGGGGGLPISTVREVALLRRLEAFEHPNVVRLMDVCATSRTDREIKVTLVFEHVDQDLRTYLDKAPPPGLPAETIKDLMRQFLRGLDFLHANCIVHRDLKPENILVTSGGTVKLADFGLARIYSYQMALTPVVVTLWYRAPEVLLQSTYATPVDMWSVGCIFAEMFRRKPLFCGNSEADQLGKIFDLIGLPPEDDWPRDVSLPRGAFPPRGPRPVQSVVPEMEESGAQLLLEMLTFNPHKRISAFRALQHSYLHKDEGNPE
T2 sequence (P24385 whole entry partner): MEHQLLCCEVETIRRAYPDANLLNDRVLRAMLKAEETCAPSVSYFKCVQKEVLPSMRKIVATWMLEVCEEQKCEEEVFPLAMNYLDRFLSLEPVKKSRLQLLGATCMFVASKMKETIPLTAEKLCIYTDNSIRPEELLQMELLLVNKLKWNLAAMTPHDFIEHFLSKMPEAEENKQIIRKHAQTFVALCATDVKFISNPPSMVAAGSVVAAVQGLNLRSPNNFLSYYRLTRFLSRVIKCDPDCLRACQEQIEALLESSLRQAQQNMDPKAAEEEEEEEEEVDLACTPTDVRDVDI
Method: The IC50 values for cdk4 inhibition were by the following method:
The transformed bacteria were grown overnight to saturation, then diluted in YT broth and incubated at 37° C. for 2 h. The protein was induced by incubation with 0.1 mM isopropylthioglycoside for 3 h. Following sedimentation by centrifugation, the cells were lysed by sonication in STE buffer ([…] NaCl, 10 mM Tris, pH 8.0, 1 mM EDTA) containing 10% sarkosyl. Particulate matter was removed by centrifugation and the lysate was incubated with glutathione-Sepharose at 4° C. The beads were washed with kinase buffer and then quantitation of Coomassie blue-stained proteins separated by SDS-PAGE was performed using a protein standard of known concentration.
The cDNA for human cyclin D1 was cloned by RT PCR using […] from MCF-7 cells. […] Bacmid DNA was used to transfect Sf9 insect cells to produce recombinant virus. Following plaque purification of the virus, the viral preparations were amplified until high titer stocks were acheived.
Lysates were prepared by lysis of Sf9 cells coinfected with cdk4 and cyclin D1 in 50 mM HEPES, pH 7.5, 10 mM MgCl2, 1 mM DTT, 0.1 mM phenylmethylsulfonyl fluoride, 5 μg/ml aprotinin, and 5 μg/ml leupeptin using a PARR bomb under 500 p.s.i nitrogen pressure for 5 min at 4° C. Insoluble material was sedimented at 10,000×g for 20 min at 4° C. Glycerol was added to the supernatant to 10% and stored at −80° C. in aliquots.
Pre-wet Millipore Multiscreen 96-well filter plates (0.65 μm Durapore filters) with 200 μl kinase buffer (50 mM HEPES, pH 7.5, 10 mM MgCl2, 1 mM EGTA). GST-Rb (0.5 μg) bound to glutathione-Sepharose beads is added in 50 μl per well and the solution removed by application of vacuum. […] Add 0.1 μg cdk4/cyclin D1 (insect cell lysate) to initiate assay. Incubate 30 min at 37° C. Terminate reaction by filtration on Millipore Vacuum Manifold. Wash four times with TNEN (20 mM Tris, pH 8.0, 100 mM Na Cl, 1 mM EDTA, 0.5% nonidet P-40). After drying the plates at room temperature, the filter plates were placed in adapter plates (Packard) and 40 μl of Microscint-O® (Packard) was added to each well. Top Seal A film was used to cover the plates before counting in a Top Count Scintillation Counter.

HT-29 = test: In vitro tumor cell proliferation, HT-29; assay type: cell-based, human; conditions: many values given with an undefined *, read-out: In vitro Tumor Cell Proliferation (IC50, μM) Colon HT-29
Method: (§1) The proliferation of tumor cells was measured using a sulforhodamine B assay as described in Skehan, P., et al., J. Natl. Cancer Inst. […] Tumor cells were harvested with trypsin-EDTA, cells that excluded trypan blue were counted, added to 96-well plates and incubated overnight at 37° C. Drug was added to the wells following dilution in culture medium. Three days later, the medium was removed and replenished with medium containing fresh drug and incubated an additional 4 days. The cells were then fixed with 0.1 ml 10% trichloroacetic acid for 60 min at 4° C. The plates were rinsed five times with tap water, air-dried and stained for 30 min with 0.4% sulforhodamine B in 1% acetic acid and air-dried.
(§2) Alternatively, the CyQUANT cell proliferation assay was used to quantitate cell proliferation.
(§3) Alternatively, the CyQUANT cell proliferation assay was used to quantify tumor cell proliferation. Tumor cells were harvested with trypsin-EDTA, cells that excluded trypan blue were counted, added to 96-well plates and incubated overnight at 37° C. Drug was added to the wells following dilution in culture medium. Three days later the medium was removed and the plates frozen at −80° C. for at least 30 minutes.
HT-29 is a human colon adenocarcinoma, moderately well-differentiated grade II (HTB 38);

Colo-205 = test: In vitro tumor cell proliferation, Colo-205; assay type: cell-based; conditions: values given with an undefined *, read-out: In vitro Tumor Cell Proliferation (IC50, μM) Colon Colo-205
Method: as §1, §2, §3

DMS-114 = test: In vitro tumor cell proliferation, DMS-114; assay type: cell-based, human; conditions: many values given with an undefined *, read-out: In vitro Tumor Cell Proliferation (IC50, μM) Lung DMS-114
Method: DMS-1 14: human small cell lung carcinoma;
as §1, §2, §3

PC-3 = test: In vitro tumor cell proliferation, PC-3; assay type: cell-based, human; conditions: many values given with an undefined *, read-out: In vitro Tumor Cell Proliferation (IC50, μM) Prostate PC-3
Method: as §1, §2, §3

A549 = test: In vitro tumor cell proliferation, A549; assay type: cell-based, human; conditions: many values given with an undefined *, read-out: In vitro Tumor Cell Proliferation (IC50, μM) Lung A549
Method: as §1, §2, §3

DU145 = test: In vitro tumor cell proliferation, DU145; assay type: cell-based, human; conditions: many values given with an undefined *, read-out: In vitro Tumor Cell Proliferation (IC50, μM) Prostate DU145
Method: as §1, §2, §3

MDA-MB-231 = test: In vitro tumor cell proliferation, MDA-MB-231; assay type: cell-based, human; conditions: sulforhodamine B or CyQUANT assay, many values given with an undefined *, read-out: In vitro Tumor Cell Proliferation (IC50, μM) Breast MDA-MB-231
Method: as §1, §2, §3
MDA-MB-23 1 is a human breast adenocarcinoma, hormone-independent (HTB 26);

MDA-MB-435 = test: In vitro tumor cell proliferation, MDA-MB-435; assay type: cell-based; conditions: values given with an undefined *, read-out: In vitro Tumor Cell Proliferation (IC50, μM) Breast MDA-MB-435
Method: as §1, §2, §3

[1] = Homo sapiens, COLO 205, Colo-205
[2] = Homo sapiens, MDA-MB-231, MDA-MB-231
[3] = Homo sapiens, MDA-MB-435, MDA-MB-435

| Compound | IC50 (cdk2/cyclin E) | IC50 (cdk4/cyclin D1) | IC50 (HT-29; Homo sapiens, HT-29, HT-29) [µM] | IC50 (Colo-205; [1]) [µM] | IC50 (DMS-114; DMS-114, dihydrochloride) [µM] | IC50 (DMS-114; Homo sapiens, DMS-114, DMS-114) [µM] | IC50 (PC-3; Homo sapiens, PC-3, PC-3) [µM] | IC50 (HT-29; HT-29, dihydrochloride) | IC50 (A549; Homo sapiens, A549, A549) [µM] | IC50 (DU145; Homo sapiens, DU-145, DU145) [µM] | IC50 (MDA-MB-231; [2]) [µM] | IC50 (MDA-MB-435; [3]) [µM] | other results |
| --- | --- | --- | --- | --- | --- | --- | --- | --- | --- | --- | --- | --- | --- |
| COCCOCCCNc1nc(N[C@H]2CC[C@H](N)CC2)nc2c1ncn2C1CCCC1 [Example 15, 2-[Trans-(4-aminocyclohexyl)amino]-6-[3-(2-methoxyethoxy)propylamino]-9-cyclopentylpurine dihydrochloride] | 0.016 µM | 0.04 µM | 2.1 | 1.6 | 1.9 | 1.8 | 1.4 |  |  |  |  |  | IC50 (Colo-205; Colo-205, dihydrochloride): 1.7 µM; IC50 (PC-3; PC-3, dihydrochloride): 1.2 µM |
| COc1ccc(CCNc2nc(N[C@H]3CC[C@H](N)CC3)nc3c2ncn3C2CCCC2)cc1 [Example 14, 2-[Trans-(4-aminocyclohexyl)amino]-6-[2-(4-methoxyphenyl)ethylamino]-9-cyclopentylpurine dihydrochloride] | 0.1 µM | 1.5 µM | 2.7 | 2.4 |  | 1.3 | 2.3 |  | 1.4 | 2.8 | 3 |  |  |
| N[C@H]1CC[C@H](Nc2nc(NNc3ccccc3Cl)c3ncn(C4CCCC4)c3n2)CC1 [Example 2, 2-[Trans-(4-aminocyclohexyl)amino]-6-(2-chlorophenylhydrazino)-9-cyclopentylpurine dihydrochloride] | 0.12 µM and 0.1 µM | 1.3 µM and 1 µM | 2.4 |  |  |  |  | 2.5 µM and 4.1 µM | 1.7 |  |  | 8 | IC50 (MDA-MB-435; MDA-MB-435, dihydrochloride): 8.2 µM; IC50 (A549; A549, dihydrochloride): 2.2 µM and 1.8 µM |
| COc1cccc(CNc2nc(N[C@H]3CC[C@H](N)CC3)nc3c2ncn3C(C)C)c1OC [Example 30, 2-[Trans-(4-aminocyclohexyl)amino]-6-[(2.3-dimethoxybenzyl)amino]-9-(2-propyl)purine dihydrochloride] | 1.4 µM | 2.4 µM |  |  |  |  |  |  |  |  |  |  |  |

Second part, led by results:

| IC50 (cdk2/cyclin E) | IC50 (cdk4/cyclin D1) | IC50 (HT-29; Homo sapiens, HT-29, HT-29) [µM] | IC50 (Colo-205; [1]) [µM] | IC50 (DMS-114; DMS-114, dihydrochloride) [µM] | IC50 (DMS-114; Homo sapiens, DMS-114, DMS-114) [µM] | IC50 (PC-3; Homo sapiens, PC-3, PC-3) [µM] | IC50 (HT-29; HT-29, dihydrochloride) | IC50 (A549; Homo sapiens, A549, A549) [µM] | IC50 (DU145; Homo sapiens, DU-145, DU145) [µM] | IC50 (MDA-MB-231; [2]) [µM] | IC50 (MDA-MB-435; [3]) [µM] | Compound | other results |
| --- | --- | --- | --- | --- | --- | --- | --- | --- | --- | --- | --- | --- | --- |
| 0.016 µM and 0.013 µM | 1.6 µM | 1.6 | 1.3 | 1.4 | 1.5 | 1.1 | 1.7 µM | 1.3 | 1.3 |  |  | N[C@H]1CC[C@H](Nc2nc(NCC3CCC(CO)CC3)c3ncn(C4CCCC4)c3n2)CC1 (stereo partly drawn) [Example 10, 2-[Trans-(4-aminocyclohexyl)amino]-6-[4-(hydroxymethyl)cyclohexanemethylamino]-9-cyclopentylpurine dihydrochloride] | IC50 (Colo-205; Colo-205, dihydrochloride): 2.6 µM; IC50 (A549; A549, dihydrochloride): 2.6 µM; IC50 (PC-3; PC-3, dihydrochloride): 1 µM; IC50 (DU145; DU145, dihydrochloride): 2.6 µM |
| 0.4 µM | 0.1 µM | 2.4 |  |  | 2.4 | 2.3 |  | 1.6 | 1.9 | 2.1 | 3.1 | N[C@H]1CC[C@H](Nc2nc(NCCNc3ccccc3)c3ncn(C4CCCC4)c3n2)CC1 [Example 31, 2-[Trans-(4-aminocyclohexyl)amino]-6-[2-(phenylamino~ethylamino]-9-cyclopentylpurinetrihydrochloride] | IC50 (MDA-MB-231; MDA-MB-231, trihydrochloride): 2.4 µM; IC50 (MDA-MB-435; MDA-MB-435, trihydrochloride): 2.6 µM; IC50 (HT-29; HT-29, trihydrochloride): 2.5 µM; IC50 (A549; A549, trihydrochloride): 2.1 µM; IC50 (DMS-114; DMS-114, trihydrochloride): 1.8 µM; IC50 (PC-3; PC-3, trihydrochloride): 1.9 µM; IC50 (DU145; DU145, trihydrochloride): 1.8 µM |
| 0.055 µM and 0.03 µM | 0.23 µM and 0.28 µM | 6.4 |  | 4.4 | 4.8 |  | 6.3 µM |  | 2.5 | 4.7 | 9.2 | COCCNc1nc(N[C@H]2CC[C@H](N)CC2)nc2c1ncn2C1CCCC1 [Example 16, 2-[Trans-(4-aminocyclohexyl)amino]-6-(2-methoxyethylamino)-9-cyclopentylpurine dihydrochloride] | IC50 (MDA-MB-231; MDA-MB-231, dihydrochloride): 4.1 µM; IC50 (MDA-MB-435; MDA-MB-435, dihydrochloride): 7.6 µM; IC50 (DU145; DU145, dihydrochloride): 3.3 µM |
| 19.4 µM | 46 µM and > 100 µM |  |  |  |  |  |  |  |  |  |  | COc1cccc(OC)c1CNc1nc(N[C@H]2CC[C@H](N)CC2)nc2c1ncn2C1CCCC1 [Example 4, 2-[Trans-(4-aminocyclohexyl)amino]-6-[(2,6-dimethoxybenzyl)amino]-1-9-cyclopentylpurine dihydrochloride] |  |
